Key:
[1] = Change in API purity during preparation of freeze-drying formulation, UPLC; type: physicochemical; settings: API powder before dissolving in the solvent composition
Procedure: A final API freeze-drying formulation was prepared as described in Table 16 below.
In order to confirm the change in purity of the API during the preparation of the final API freeze-drying formulation, the purity of the API powder before dissolving in the solvent composition, and the API purity during the preparation of the API mixture solution and after freeze-drying were measured using UPLC.

[2] = Solubility of compound of Formula 1 in water and solvents of various compositions; type: physicochemical
Description: Further, it was confirmed that the compound of Formula 1 has the property of reducing the pH of a solution while being dissolved in a solvent.

## CC(C)[C@@]1(C(=O)N[C@H]2CC(=O)O[C@]2(O)CF)CC(c2nccc3ccccc23)=NO1 [Compound of Formula 1, (R)-N-((2S,3S)-2-(fluoromethyl)-2-hydroxy-5-oxotetrahydrofuran-3-yl)-5-isopropyl-3-(isoquinolin-1-yl)-4,5-dihydroisoxazol-5-carboxamide]
[1]
  Purity (%): 98.6%
[2]; acidic solvents of pH 4 or less containing phosphate buffer, solubilizing agent and pH adjusting agent
  solubility in acidic solvents: hardly soluble
[2]; water
  solubility in water: poorly soluble in water
[2]; weak acidic solvents of pH 6 or more and basic solvents of pH 7.5 or more
  solubility in weak acidic and basic solvents: dissolved well
